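All cell lines were grown in 96-well plates and treated with compound for 48 hours. GI50 marks 50% less growth. TGI marks complete inhibition of growth.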 Where a SMILES comes first, the peptide text is derived from it. The star is where a group is joined. Boc = CC(C)(C)OC(=O)*
Experiments:
Assay in all cases: NCI tumour cell line growth inhibition, 48 h
[1] = test system: HOP-62 NSCLC
[2] = test system: ACHN renal
[3] = test system: BT-549 breast
[4] = test system: MOLT-4 leukemia
[5] = test system: SK-OV-3 ovarian
[6] = test system: IGROV1 ovarian
[7] = test system: HCT-116 colon
[8] = test system: NCI-H226 lung
[9] = test system: A498 renal
[10] = test system: LOX IMVI melanoma

Row | Structure (SMILES) | TGI [1] [µM] | TGI [2] [µM] | TGI [3] [µM] | TGI [4] [µM] | TGI [5] [µM] | TGI [6] [µM] | TGI [7] [µM] | TGI [8] [µM] | TGI [9] [µM] | TGI [10] [µM] | GI50 [1] [µM]
1 | S=C1C(=Nc2ccccc2)N(c2ccccc2)/C(=N\c2cccc[n+]2Cc2ccccc2)N1c1ccccc1 | 29.8 | 45 | 27.4 | > 100 | 42.6 | 54.9 | 23.9 | 40.4 | – | – | –
2 | Nc1ccc2c(=O)cc(-c3ccc(Br)s3)[nH]c2n1 | > 100 | > 100 | – | 13.2 | > 53.1 | > 100 | > 100 | 9.11 | > 100 | > 100 | –
3 | CCOC(=O)C1CCC(=O)N1C(=O)c1cccc(Cl)c1 (stereo not given) | > 100 | > 100 | > 100 | > 100 | – | > 100 | > 100 | > 100 | > 100 | > 100 | –
4 | N/N=C(/N)SCCCCCCCCCCS/C(N)=N/N | > 100 | 67.4 | 68.7 | – | – | 69.9 | > 100 | 83.1 | 43.8 | 23.7 | –
5 | Cc1ccc(S(=O)(=O)OCCC2CN(C(=O)OCc3ccccc3)C(C)(C)O2)cc1 (stereo not given) | – | 64.9 | 5.97 | 47.8 | > 100 | > 100 | > 100 | 4.35 | > 100 | > 100 | –
6 | Cc1cc(C)nc(NS(=O)(=O)c2ccc(NNc3c4ccccc4nc4c(C(=O)Nc5ccc(S(=O)(=O)Nc6cc(C)on6)cc5)cccc34)cc2)n1 | > 100 | > 100 | > 100 | 82.2 | > 100 | > 100 | > 100 | 63.8 | – | 88.8 | –
7 | O=C1c2ccncc2C(=O)c2c(O)ccc(O)c21 | 61.6 | 17.1 | – | 54.5 | – | 25.9 | 10.3 | 29.4 | 33.1 | 18.3 | –
8 | C=CC(C)(C)/C=C/c1ccc(O)cc1 | > 100 | > 100 | > 100 | > 100 | > 100 | > 100 | > 100 | – | > 100 | 45.6 | –
9 | O=c1[nH]n(CCc2ccccc2CCl)c2ccc([N+](=O)[O-])cc12 | > 100 | > 100 | > 100 | > 100 | – | > 100 | > 100 | > 100 | > 100 | > 100 | –
10 | CC(=O)/C=C/c1ccccc1 | 93.9 | > 100 | – | > 100 | > 100 | 64.9 | > 100 | 91.2 | 76.3 | – | –
11 | O=Nc1c(-c2c(O)[nH]c3ccc(I)cc23)[nH]c2ccccc12 | > 30.8 | > 21.4 | > 59.3 | – | > 35 | 8.51 | – | – | > 27.6 | > 24.5 | –
12 | O=C1Nc2cccc(Cl)c2/C1=C\c1c(-c2ccccc2)nc2n1CCS2 | 66.1 | 32.3 | 76.5 | 39.4 | 65.9 | 37.5 | 54.6 | – | 39.4 | 36.3 | –
13 | c1cc2cc3c4c5c(cc6ccc7cc8cc9c%10c8c8c7c6c5c8c5c%10c(c1C9N1CCOCCOCCOCCOCCOCC1)c2c45)C3 (stereo not given) | > 100 | > 100 | > 100 | > 100 | > 100 | > 100 | > 100 | > 100 | – | > 100 | –
14 | Cc1cc2c(=O)c3ccc(Cl)cc3[nH]c2c(C(N)=O)c1C | > 100 | > 100 | – | > 100 | > 100 | > 100 | > 100 | – | > 100 | > 100 | –
15 | COc1ccc(/C=c2\[nH]c3nc(=O)c(N4CCCCC4)c(N)n3c2=O)cc1 | – | > 100 | – | > 100 | > 100 | > 100 | > 100 | > 100 | > 100 | > 100 | –
16 | Cc1cc2c(c(C(=O)NCC(=O)O)c1)Oc1c(cc(C)cc1C(=O)NCC(=O)O)S2 | > 100 | > 100 | > 100 | > 100 | > 100 | > 100 | > 100 | > 100 | – | > 100 | –
17 | COC(=O)[C@@H](NS(=O)(=O)CC12CCC(CC1)C2(C)C)C(C)(C)C | – | > 100 | > 100 | 70 | > 100 | > 100 | > 100 | > 100 | > 100 | > 100 | –
18 | COC(=O)C(Cc1c[nH]c2ccccc12)NC(=O)C(Cc1c[nH]c2ccccc12)NC(=O)C(Cc1c[nH]c2ccccc12)NC(=O)C(Cc1c[nH]c2ccccc12)NC(=O)C(Cc1c[nH]c2ccccc12)NC(=O)C(Cc1c[nH]c2ccccc12)NC(=O)C(Cc1c[nH]c2ccccc12)NC(=O)OC(C)(C)C (stereo not given) (Boc-WWWWWWW-OMe; configuration not given here) | > 100 | > 100 | > 100 | > 100 | – | > 100 | > 100 | > 100 | – | > 100 | –
19 | Cc1cc(=O)[nH]c(NNC(C#N)c2ccccc2O)n1 (stereo not given) | 99.8 | 90.8 | – | > 100 | > 100 | > 100 | > 100 | 84.2 | – | > 100 | –
20 | COC(=O)/C=C\n1nc(Br)c(=O)[nH]c1=O | > 100 | > 100 | > 100 | – | – | > 100 | – | – | > 100 | > 100 | –
21 | COC(=O)C1C(=O)CC(C)(O)C(C(=O)OC)C1c1ccc(N(C)C)cc1 (stereo not given) | > 100 | > 100 | > 100 | > 100 | – | > 100 | 21 | > 100 | > 100 | 24.4 | –
22 | [N-]=[N+]=Nc1nc2ccccc2c(N=[N+]=[N-])c1Cl | > 100 | > 100 | 89.6 | > 100 | > 100 | > 100 | > 100 | – | 46.9 | > 100 | –
23 | CC/C=C/c1cc2c(cc1O)CCC1C2CC[C@@]2(C)C1CC[C@@H]2O (stereo not given in full) | 16.7 | 17.9 | – | 18.8 | 16.7 | 17.5 | 14.3 | 10.6 | 9.03 | 6.68 | 2.69

Source: PubChem BioAssay (NCI)
